Compound in one assay: CN(C)CC[C@H](CSc1ccccc1)Nc1ccc(S(=O)(=O)NC(=O)c2ccc(N3CCN(Cc4ccccc4-c4ccc(Cl)cc4)CC3)cc2)cc1[N+](=O)[O-] [ABT-737]
As to the kind of experiment: surviving fraction relative to DMSO-only wells; higher = less growth inhibition. Particulars: exposure time: 5 days. The method in brief: (§1)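 At 250–500 cells per well in 384-well plates, log-phase tumour cell lines were seeded and, 24 hours on, exposed continuously for five days to inhibitors at 0.5, 1, 5, 10, 50, 100, 500 and 1000 nM. Viability readout was CellTiter-Glo luminescence, reported as surviving fraction normalised to the median of DMSO-only wells.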

Compound in a further assay: O=c1[nH]cc(F)c(=O)[nH]1 [FLUOROURACIL]
The assay is described as above. Particulars: exposure time: 5 days. The method in brief:
as §1

± gives the standard deviation of the averaged measurements.

For G292 BONE, the surviving fraction with ABT-737 (0.5 nM) is 1.06 ± 0.043; with ABT-737 (1 nM), 1.03 ± 0.021; in the assay with ABT-737 (5 nM), 1.08 ± 0.014; with ABT-737 (10 nM) it was 1.02 ± 0.012; with ABT-737 (50 nM) it was 1.07 ± 0.022; in the assay with ABT-737 (100 nM) it was 1.06 ± 0.024. Moreover, the surviving fraction in the assay with ABT-737 (500 nM) was determined as 1.02 ± 0.019; with ABT-737 (1000 nM), 0.904 ± 0.027; in the assay with FLUOROURACIL (0.5 nM), 0.993 ± 0.028; in the assay with FLUOROURACIL (1 nM), 0.965 ± 0.051; in the assay with FLUOROURACIL (5 nM) it was 1.02 ± 0.037; with FLUOROURACIL (10 nM), 1.01 ± 0.03. For the same test system, the surviving fraction with FLUOROURACIL (50 nM) is 0.994 ± 0.051; with FLUOROURACIL (100 nM), 0.939 ± 0.027; in the assay with FLUOROURACIL (500 nM), 0.941 ± 0.017; with FLUOROURACIL (1000 nM) it was 0.759 ± 0.054.
Turning to HCC38 BREAST, the surviving fraction is 1.22 ± 0.037 with ABT-737 (0.5 nM); 1.23 ± 0.086 with ABT-737 (1 nM); 1.3 ± 0.23 with ABT-737 (5 nM); 1.31 ± 0.049 in the assay with ABT-737 (10 nM); 1.21 ± 0.11 in the assay with ABT-737 (50 nM); 1.26 ± 0.17 with ABT-737 (100 nM). Also, the surviving fraction amounted to 0.873 ± 0.12 in the assay with ABT-737 (500 nM); 0.714 ± 0.068 with ABT-737 (1000 nM); 1.01 ± 0.2 with FLUOROURACIL (0.5 nM); 0.97 ± 0.11 in the assay with FLUOROURACIL (1 nM); 1.02 ± 0.17 in the assay with FLUOROURACIL (5 nM); 1.11 ± 0.14 with FLUOROURACIL (10 nM). The surviving fraction with FLUOROURACIL (50 nM) amounted to 0.8 ± 0.092; in the assay with FLUOROURACIL (100 nM) it was 0.727 ± 0.14; in the assay with FLUOROURACIL (500 nM), 0.689 ± 0.027; in the assay with FLUOROURACIL (1000 nM), 0.644 ± 0.097.
For the test system HCC70 BREAST, the surviving fraction was found to be 1.07 ± 0.044 with ABT-737 (0.5 nM); 1.11 ± 0.08 with ABT-737 (1 nM); 1.1 ± 0.065 with ABT-737 (5 nM); 1.11 ± 0.051 in the assay with ABT-737 (10 nM); 1.06 ± 0.092 in the assay with ABT-737 (50 nM); 1.03 ± 0.078 with ABT-737 (100 nM). Further, the surviving fraction with ABT-737 (500 nM) came out at 1 ± 0.048; with ABT-737 (1000 nM), 0.978 ± 0.032; in the assay with FLUOROURACIL (0.5 nM) it was 1.06 ± 0.054; in the assay with FLUOROURACIL (1 nM), 1.08 ± 0.12; in the assay with FLUOROURACIL (5 nM), 1.14 ± 0.083; in the assay with FLUOROURACIL (10 nM), 1.12 ± 0.028. Besides, the surviving fraction with FLUOROURACIL (50 nM) came out at 1.04 ± 0.092; in the assay with FLUOROURACIL (100 nM) it was 1.03 ± 0.06; in the assay with FLUOROURACIL (500 nM), 0.778 ± 0.047; with FLUOROURACIL (1000 nM), 0.735 ± 0.053.
As to HMLE3 BREAST, the surviving fraction in the assay with ABT-737 (0.5 nM) was found to be 1.06 ± 0.073; in the assay with ABT-737 (1 nM), 1.06 ± 0.049; in the assay with ABT-737 (5 nM), 1.15 ± 0.013; with ABT-737 (10 nM), 1.17 ± 0.11; with ABT-737 (50 nM), 1.1 ± 0.13; in the assay with ABT-737 (100 nM), 1.17 ± 0.12. The surviving fraction in the assay with ABT-737 (500 nM) was found to be 1.17 ± 0.13; in the assay with ABT-737 (1000 nM), 1.22 ± 0.1; in the assay with FLUOROURACIL (0.5 nM) it was 1.05 ± 0.097; with FLUOROURACIL (1 nM), 1.11 ± 0.03; with FLUOROURACIL (5 nM), 1.09 ± 0.15; in the assay with FLUOROURACIL (10 nM) it was 1.13 ± 0.043. Besides, the surviving fraction came to 1.06 ± 0.091 with FLUOROURACIL (50 nM), 0.955 ± 0.065 in the assay with FLUOROURACIL (100 nM), 0.838 ± 0.034 with FLUOROURACIL (500 nM) and 0.702 ± 0.15 with FLUOROURACIL (1000 nM).
HMT3552 BREAST: the surviving fraction is 1.01 ± 0.084 with ABT-737 (0.5 nM); 1.02 ± 0.033 with ABT-737 (1 nM); 1.04 ± 0.035 with ABT-737 (5 nM); 0.979 ± 0.082 with ABT-737 (10 nM); 1.1 ± 0.036 with ABT-737 (50 nM); 1.23 ± 0.038 with ABT-737 (100 nM). Further, the surviving fraction with ABT-737 (500 nM) was 1.03 ± 0.06; in the assay with ABT-737 (1000 nM), 1.17 ± 0.03; with FLUOROURACIL (0.5 nM), 0.951 ± 0.044; with FLUOROURACIL (1 nM) it was 0.925 ± 0.085; in the assay with FLUOROURACIL (5 nM), 0.976 ± 0.08; in the assay with FLUOROURACIL (10 nM), 0.85 ± 0.048. The surviving fraction in the assay with FLUOROURACIL (50 nM) is 1.01 ± 0.036; with FLUOROURACIL (100 nM), 0.89 ± 0.02; in the assay with FLUOROURACIL (500 nM), 0.939 ± 0.1; in the assay with FLUOROURACIL (1000 nM), 0.536 ± 0.033.
HS57T BREAST: the surviving fraction with ABT-737 (0.5 nM) came to 1.03 ± 0.056; with ABT-737 (1 nM), 1.09 ± 0.011; in the assay with ABT-737 (5 nM) it was 1.08 ± 0.072; with ABT-737 (10 nM) it was 1.11 ± 0.093; in the assay with ABT-737 (50 nM), 1.04 ± 0.01; with ABT-737 (100 nM) it was 1.06 ± 0.066. In addition, the surviving fraction amounted to 0.981 ± 0.039 in the assay with ABT-737 (500 nM); 0.965 ± 0.018 in the assay with ABT-737 (1000 nM); 1.02 ± 0.026 with FLUOROURACIL (0.5 nM); 1.04 ± 0.086 with FLUOROURACIL (1 nM); 1.07 ± 0.056 with FLUOROURACIL (5 nM); 0.995 ± 0.044 with FLUOROURACIL (10 nM). For the same test system, the surviving fraction was 0.972 ± 0.044 with FLUOROURACIL (50 nM), 1 ± 0.041 in the assay with FLUOROURACIL (100 nM), 0.926 ± 0.059 in the assay with FLUOROURACIL (500 nM) and 0.734 ± 0.061 in the assay with FLUOROURACIL (1000 nM).
With HS578T BREAST, the surviving fraction in the assay with ABT-737 (0.5 nM) is 1.08 ± 0.11; with ABT-737 (1 nM) it was 1.37 ± 0.23; with ABT-737 (5 nM), 1.26 ± 0.15; with ABT-737 (10 nM) it was 1.24 ± 0.11; in the assay with ABT-737 (50 nM) it was 1.18 ± 0.073; with ABT-737 (100 nM), 1.15 ± 0.15. Besides, the surviving fraction with ABT-737 (500 nM) was 0.975 ± 0.021; with ABT-737 (1000 nM), 0.955 ± 0.059; with FLUOROURACIL (0.5 nM), 0.839 ± 0.2; in the assay with FLUOROURACIL (1 nM), 1.04 ± 0.043; in the assay with FLUOROURACIL (5 nM), 0.904 ± 0.054; in the assay with FLUOROURACIL (10 nM) it was 0.856 ± 0.1. Moreover, the surviving fraction with FLUOROURACIL (50 nM) came out at 0.902 ± 0.19; with FLUOROURACIL (100 nM) it was 0.817 ± 0.15; in the assay with FLUOROURACIL (500 nM) it was 0.793 ± 0.071; with FLUOROURACIL (1000 nM) it was 0.708 ± 0.041.

The record behind these values is the supplement of paper PMC6045584.
